Laboratory results taken from article PMC10449631 (Nature Chemical Biology, 2023).
pIC50: −log10 of the molar value. No end group written: not given here.

Columns and labels:
[1] = molecular target: T1, PaAP variant R194A (Pseudomonas aeruginosa, UniProt Q02PA2, R194A); test: biochemical
T1 construct: PaAP (WT, residues 27–536); His6 (TEV cleavable) (N, cleaved yes); made in house; host or cells: E. coli SHuffle T7
Description: (§1) To test this, we produced the PaAP variant R194A to eliminate a likely salt bridge between the peptide COOH and the guanidinium of the protein arginine side chain.
(§2) Inhibition assays were carried out with the following peptides: linear-[…] (PaAP C-terminal residues), cyclic-[…], N-acetylated and C-amidated […]. IC50 values were determined by varying peptide concentration at a fixed substrate concentration (fixed at KM, (S) = 2 mM, PaAP concentration was 100 nM). KI was determined by assaying multiple fixed inhibitor concentrations (1,000 nM, 500 nM, 250 nM, 100 nM, 50 nM, 25 nM and 10 nM) at varying substrate concentrations under standard reaction conditions with Leu-pNA as a substrate (outlined above). KI values were determined by fitting the data to equation (1) (Morrison’s equation):1 v=1−Et+I+KI−Et+I+KI^2−4EtIKI/2Et where v is the velocity, Et is the total enzyme concentration, I is the concentration of inhibitor and KI is the equilibrium dissociation constant for the inhibitor.

[2] = system: PaAP variant R194A; test: biochemical; design: species or system Pseudomonas aeruginosa; conditions: compared to full-length PaAP
Description: as §1, §2

T1 sequence (Q02PA2 37-516, looked up, stated change not applied): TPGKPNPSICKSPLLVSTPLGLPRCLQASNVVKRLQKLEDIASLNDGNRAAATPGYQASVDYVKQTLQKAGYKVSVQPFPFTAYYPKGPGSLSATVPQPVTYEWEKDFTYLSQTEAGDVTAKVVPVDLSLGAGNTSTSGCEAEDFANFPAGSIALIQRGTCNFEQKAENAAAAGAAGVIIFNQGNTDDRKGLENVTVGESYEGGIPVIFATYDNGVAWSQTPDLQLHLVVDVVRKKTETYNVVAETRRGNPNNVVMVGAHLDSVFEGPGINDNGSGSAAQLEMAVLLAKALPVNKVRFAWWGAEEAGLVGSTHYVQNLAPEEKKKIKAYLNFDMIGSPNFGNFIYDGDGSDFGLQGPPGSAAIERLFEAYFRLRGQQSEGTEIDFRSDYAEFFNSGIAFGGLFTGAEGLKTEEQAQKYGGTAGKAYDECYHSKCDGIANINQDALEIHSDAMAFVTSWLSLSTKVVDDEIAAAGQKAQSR

Sequence: ERWGHDFIK [linear-ERWGHDFIK]
- pIC50 [1]: 3.51
- fold increase of IC50 with R194A variant [2]: 100 fold
